Experimental data published in PMC4445328, “Azasugar inhibitors as pharmacological chaperones for Krabbe disease” (Chemical Science, 2015).
Where two headings read alike, the source gives them in different places. Values belong to the compound of their own block, whether it stands above or below them.

Assays:
[1] = target: T1, β-galactocerebrosidase (GALC) (Mus musculus, UniProt P54818); assay: GALC enzyme inhibition kinetics, Ki determination with chromogenic substrate 4NβDG; format: biochemical; conditions: for Ki: pH 4.6, substrate 4-nitrophenyl-β-D-galactopyranoside, steady-state, competitive inhibition model; for times more potent inhibitors of GALC than pyrrolidine DIL and lactam IGL: pH 4.6, ratio of Ki values
T1 construct: made in house
T1 sequence (P54818 43-684): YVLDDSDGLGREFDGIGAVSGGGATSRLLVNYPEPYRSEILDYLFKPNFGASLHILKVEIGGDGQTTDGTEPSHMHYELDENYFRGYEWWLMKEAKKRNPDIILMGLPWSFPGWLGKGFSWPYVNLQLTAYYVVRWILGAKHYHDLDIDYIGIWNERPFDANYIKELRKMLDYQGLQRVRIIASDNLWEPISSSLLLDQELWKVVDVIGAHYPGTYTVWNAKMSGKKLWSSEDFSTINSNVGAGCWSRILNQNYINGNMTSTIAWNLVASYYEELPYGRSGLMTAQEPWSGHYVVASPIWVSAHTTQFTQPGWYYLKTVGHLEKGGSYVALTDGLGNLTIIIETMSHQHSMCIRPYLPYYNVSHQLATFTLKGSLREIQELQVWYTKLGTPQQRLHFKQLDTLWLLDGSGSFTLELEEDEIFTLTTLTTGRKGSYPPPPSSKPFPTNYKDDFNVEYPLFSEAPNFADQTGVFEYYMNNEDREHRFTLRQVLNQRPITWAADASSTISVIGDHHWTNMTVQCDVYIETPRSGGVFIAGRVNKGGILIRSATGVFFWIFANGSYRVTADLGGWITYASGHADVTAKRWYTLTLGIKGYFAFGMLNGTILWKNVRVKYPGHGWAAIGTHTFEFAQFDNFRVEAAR

GALC [2] = target: T2, GALC (Mus musculus, UniProt P54818); assay: Differential scanning fluorimetry (DSF) thermal shift of wild-type GALC; format: binding; conditions: for ΔTm at 5000 µM / ΔTm1 pH 7.4 (first transition of double sigmoid melt curve) / ΔTm2 pH 7.4 (second transition of double sigmoid melt curve): 5.0 mM compound; for ΔTm at 5000 µM: triplicate; for additional increase of Tm over DGJ, DIL and IGL / increase of Tm of wild-type enzyme: pH 4.6, 5 mM; for ΔTm1 pH 7.4 (first transition of double sigmoid melt curve) / ΔTm2 pH 7.4 (second transition of double sigmoid melt curve): PBS pH 7.4
T2 construct: made in house
T2 sequence (P54818 43-684): T1 sequence (P54818 43-684)

[3] = set-up: method as in PMID 11891910; conditions: cited from earlier work
[4] = pKaH and protonation state of azasugars; format: physicochemical; conditions: pH 7.4, from pKaH
GALC E258Q = target: T3, GALC E258Q (Mus musculus, UniProt P54818, E274Q); assay: DSF thermal shift of GALC E258Q mutant; format: binding; conditions: pH 7.4 PBS, 10 mM compound
T3 construct: made in house
T3 sequence (P54818 41-684 E274Q limits assumed): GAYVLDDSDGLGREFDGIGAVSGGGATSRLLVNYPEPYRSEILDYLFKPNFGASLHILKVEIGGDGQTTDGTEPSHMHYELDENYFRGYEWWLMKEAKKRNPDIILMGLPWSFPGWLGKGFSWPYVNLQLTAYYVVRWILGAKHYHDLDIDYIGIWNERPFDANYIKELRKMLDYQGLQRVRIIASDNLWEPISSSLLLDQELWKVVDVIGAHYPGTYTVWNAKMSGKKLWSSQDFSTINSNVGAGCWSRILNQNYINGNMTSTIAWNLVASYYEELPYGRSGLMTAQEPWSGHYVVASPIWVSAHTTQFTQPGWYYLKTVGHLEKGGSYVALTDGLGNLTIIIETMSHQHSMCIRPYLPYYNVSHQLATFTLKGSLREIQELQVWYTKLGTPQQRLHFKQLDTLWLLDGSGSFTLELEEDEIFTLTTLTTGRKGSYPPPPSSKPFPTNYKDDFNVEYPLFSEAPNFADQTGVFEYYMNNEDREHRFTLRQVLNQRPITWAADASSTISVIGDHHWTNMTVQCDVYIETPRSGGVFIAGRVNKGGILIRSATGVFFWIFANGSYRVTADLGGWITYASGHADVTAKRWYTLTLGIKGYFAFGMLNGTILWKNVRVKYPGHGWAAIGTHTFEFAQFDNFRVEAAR
Description: All molecules form stabilizing hydrogen bonds with the side chain of E258 in the active site (Fig. 8A). […] Thus E258 O^ε2 could be forming a tight electrostatic interaction with the charged nitrogen in the ring of these molecules. Mutation of E258 to glutamine allows for the maintenance of a hydrogen bond but not an electrostatic interaction. We expressed and purified the E258Q mutant and repeated the DSF experiments at both pH 4.6 and pH 7.4. The importance of this interaction between E258 and the candidate chaperone molecules is highlighted by the complete loss of stabilization of GALC E258Q at pH 4.6 by all molecules except lactam IGL, which is incapable of forming a salt bridge (Fig. 8B). At pH 7.4, the global stability conferred by piperidine IGF to the E258Q mutant has lost the double sigmoid features seen for the wild-type GALC at pH 7.4 (Fig. 4A and 8C). […] To further understand the nature of the GALC–IGF interaction that is conferring the double melt curve we carried out DSF experiments at a range of pH values. […]
DSF experiments were performed in 48-well plates, 50 μL reactions comprised 5.0 μg GALC and 5× SyPRO Orange dye in either PBS pH 7.4, 20 mM Tris pH 7.4 or 20 mM sodium acetate pH 4.6. […] SyPRO fluorescence was monitored on the HEX channel. […] Stabilization is expressed as the ΔT m compared to a protein-only control. […]

GALC [5] = target: T2, GALC; assay: GALC crystal soaks, X-ray ligand binding in the active site; conditions: 20 mM ligand crystal soak; non-binders repeated for 1 hour and overnight
[6] = 50 mM, Fig. S2, pH 4.6 and pH 7.4
[7] = PBS pH 7.4, mean ± SEM, read-out: ΔTm pH 7.4
[8] = sodium acetate pH 4.6, mean ± SEM, read-out: ΔTm pH 4.6

Compound: O=CC[C@@H](O)[C@@H](O)[C@H](O)CO [2-deoxy-galactose, reference compound]
stabilization of GALC (GALC [2]; [6]): no stabilization

Compound: OC[C@H]1NNC[C@@H](O)[C@H]1O [AGF, aza-galacto-fagomine]
times more potent inhibitors of GALC than pyrrolidine DIL and lactam IGL [1]: greater than 80 times
Ki [1]: 0.63 ± 0.053 µM
pKaH [3]: 5.7
ΔTm at 5000 µM (GALC [2]; [7]): 4.6 °C
ΔTm at 5000 µM (GALC [2]; [8]): 16.4 °C
additional increase of Tm over DGJ, DIL and IGL (GALC [2]): 8–9 degrees
molecules possessing a positive charge at pH 7.4 [4]: 2%

Compound: OCC1NCC(O)C(O)C1O (stereo not shown) [DGJ, 1-deoxy-galacto-nojirimycin, reference compound]
ΔTm at 5000 µM (GALC [2]; [7]): 5.2 °C
increase of Tm of wild-type enzyme (GALC [2]): 6–8 degrees

Compound: OCC1C2CCC(N2)C(O)C1O (stereo not shown) [DGN, deoxy-galacto-noeurostegine]
ΔTm at 5000 µM (GALC [2]; [7]): -3.6 ± 0.1 °C
ΔTm at 5000 µM (GALC [2]; [8]): 1 °C
effect on global stability of wild-type GALC (GALC [2]; pH 7.4): destabilized GALC

Compound: OC[C@H]1NC[C@@H](O)[C@H]1O [DIL]
Ki [1]: 130 ± 6 µM
ΔTm at 5000 µM (GALC [2]; [7]): 4 °C
ΔTm at 5000 µM (GALC [2]; [8]): 7.2 °C
increase of Tm of wild-type enzyme (GALC [2]): 6–8 degrees

Further lines, with some results ahead:

Ki [1]: 7200 µM
stabilization of GALC (GALC [2]; [6]): no stabilization
Compound: OC[C@H]1OC(O)[C@H](O)[C@@H](O)[C@H]1O (mixture of isomers) [galactose, reference compound]

stabilization of GALC (GALC [2]; up to 10 mM, either pH (4.6 or 7.4), Fig. S2): unable to stabilize GALC
Compound: OC[C@H]1NC[C@H](O)[C@@H](O)[C@@H]1O [DNJ, 1-deoxynojirimycin, reference compound]

times more potent inhibitors of GALC than pyrrolidine DIL and lactam IGL [1]: greater than 80 times
Ki [1]: 0.38 ± 0.026 µM
higher Tm2 with GALC E258Q (GALC E258Q): abolished
ΔTm1 pH 7.4 (first transition of double sigmoid melt curve) (GALC [2]): 4 °C
ΔTm2 pH 7.4 (second transition of double sigmoid melt curve) (GALC [2]): 21 °C
ΔTm1 pH 7.4 (first transition of double sigmoid melt curve) (GALC [2]; listed as IGF1): +4.0 ± 0.3 °C
ΔTm2 pH 7.4 (second transition of double sigmoid melt curve) (GALC [2]; listed as IGF2): +21.0 ± 0.2 °C
ΔTm at 5000 µM (GALC [2]; [8]): 17.7 °C
additional increase of Tm over DGJ, DIL and IGL (GALC [2]): 8–9 degrees
molecules possessing a positive charge at pH 7.4 [4]: 96%
Compound: OC[C@H]1CNC[C@@H](O)[C@H]1O [IGF, iso-galacto-fagomine]
pKaH [3]: 8.8

Ki [1]: 52 ± 3 µM
ΔTm at 5000 µM (GALC [2]; [7]): 1.6 °C
ΔTm at 5000 µM (GALC [2]; [8]): 8.1 °C
increase of Tm of wild-type enzyme (GALC [2]): 6–8 degrees
Compound: O=C1NC[C@H](CO)[C@H](O)[C@@H]1O [IGL, iso-galacto-fagomine lactam]

change in Tm (GALC [2]; either pH (4.6 or 7.4), data not shown): No change in T m
binding in GALC crystals (difference electron density in active site) (GALC [5]): not observed to bind
Compound: CN1[C@@H](CC(=O)c2ccccc2)CCC[C@H]1C[C@H](O)c1ccccc1 [α-lobeline, reference compound]
